One compound from patent US20230364271A1, “METHODS AND COMPOSITIONS FOR INCREASING UPTAKE, INTERNALIZATION, AND/OR RETENTION OF SMALL MOLECULE LIGANDS” (CORNELL UNIVERSITY, priority 2020, published 2023) can be followed below.

The test system of one data set is CWR22rv1 tumors. As to the kind of experiment: Tumor uptake of PSMA-617-Lu^177 in CWR22rv1 xenografts with cold antibody (Example 4). It is filed as in vivo, BALB/c nude mice. As to conditions: PSMA-617-Lu^177 300 μci IV with PBS, day 3 post-injection, average. As to the method:
CWR22rv1 cells (5×10^6 cells/200 μl matrigel/mouse) were injected into 40 BALB/c nude mice. After tumors were established and growing, all mice were injected intravenously (IV) via tail vein with PSMA-617-Lu^177 (300 μci/per mouse) on day 0. The treatment groups were as follows.
All mice were euthanized 3 days after injection of PSMA-617-Lu^177. All tumors were harvested, weighed individually, and radioactivity counted.

For another data set, the system named is LNCaP cells. Description: Retention of internalized Lu^177-labelled agent in LNCaP cells (Example 1). As to conditions: for efflux out of the cells after internalization: 2 human prostate cancer cell lines (LNCaP and CWR22Rv1); for cell-associated counts retained: LNCaP. It counts as cell-based, human. On the procedure: (§1) LNCaP or CWR22Rv1 cells were plated into 12-well plates overnight. Lu^177-J591 (0.5 μci/ml/well) or Lu^177-PSMA-617 (0.5 μci/ml/well) was then added, and the cells were incubated for 6 hours at 37° C. to allow internalization. Duplicate wells were used for each time point. After 6 hours of incubation, the cells were washed once with RPMI-10% FBS. 0.6 ml of 1% TritonX-100 was added per well for 2 wells as 0 time point, and 1.5 ml of RPMI-10% FBS was added to the remaining wells. The cells were incubated at 37° C. for 1 to 6 days. On day 1, 2, 3, 5, and 6, the medium was removed and 0.6 ml of 1% TritonX-100 was added to each well. The lysate was collected from each well and all samples were counted at day 6. Results are shown in Table 1 below (in % of time 0 counts) and FIGS. 1A-1B.

The test system of the next data set is CWR22Rv1 cells. Description: Retention of internalized Lu^177-labelled agent in CWR22Rv1 cells (Example 1). It is filed as cell-based, human. As to the method: as §1

On to `O=C([O-])CN1CCN(CC(=O)[O-])CCN(CC(=O)NCC2CCC(C(=O)N[C@@H](Cc3ccc4ccccc4c3)C(=O)NCCCC[C@H](NC(=O)N[C@@H](CCC(=O)O)C(=O)O)C(=O)O)CC2)CCN(CC(=O)[O-])CC1.[177Lu+3]` (stereo partly drawn) [Lu^177-PSMA-617], for which the tumor radioactivity with CWR22rv1 tumors is reported as 150 cpm/mg of tumor. The “efflux out of the cells after internalization” value is listed as “rapidly effluxed back out of the cell soon after internalization” in the data set with LNCaP cells (listed as PSMA 617-Lu^177) and “rapidly effluxed out of the cells” in the data set with LNCaP cells (listed as small molecule ligand). Moreover, the cell-associated counts retained in the data set on LNCaP cells (0 time (after 6 h incubation)) is given as 100.00 % of time 0 counts; in the data set with LNCaP cells (Day 1), 52.21 % of time 0 counts; with LNCaP cells (Day 2) it was 56.06 % of time 0 counts; in the data set with LNCaP cells (Day 3) it was 42.80 % of time 0 counts; in the data set on LNCaP cells (Day 5), 39.12 % of time 0 counts; in the data set with LNCaP cells (Day 6) it was 35.82 % of time 0 counts. The cell-associated counts retained in the data set on CWR22Rv1 cells (CWR22Rv1, 0 time (after 6 h incubation)) is on record as 100.00 % of time 0 counts; in the data set on CWR22Rv1 cells (CWR22Rv1, Day 1), 24.37 % of time 0 counts; with CWR22Rv1 cells (CWR22Rv1, Day 2), 23.99 % of time 0 counts; in the data set on CWR22Rv1 cells (CWR22Rv1, Day 3), 10.28 % of time 0 counts; in the data set with CWR22Rv1 cells (CWR22Rv1, Day 5) it was 9.39 % of time 0 counts; with CWR22Rv1 cells (CWR22Rv1, Day 6), 7.64 % of time 0 counts.
